Laboratory results from patent US8795691B2, “Nanotubes and compositions thereof” (Brown University, priority 2010, dated 2014).

How the values were obtained:
Assay type in all cases: cell-based
[1] = tested on: Rat aortic endothelial cells (RAEC); experiment: Endothelial cell adhesion on RNT-coated titanium; details: coated on Ti, 4 h, FIG. 9
Description: (§1) Titanium (Ti) (1 cm×1 cm×0.05 cm) (Alfa Aesar Ti foil) and glass coverslips were soaked in acetone for 15 min, sonicated for 15 min in acetone, and rinsed with dH2O. They were then soaked and sonicated in 70% ethanol and rinsed with dH2O. Lastly, they were soaked and sonicated in dH2O for another 15 min and rinsed. The glass was then etched in 1 M NaOH for 1 h and thoroughly rinsed in dH2O. All of the Ti and glass coverslips were oven-dried overnight and autoclaved for sterilization. The day before cell seeding, the cleaned Ti substrates were coated with the various RNTs (0.01 mg/mL) and KRSR peptide (0.01 mg/mL) solutions for 45 min at room temperature. They were then removed from the solutions and air-dried overnight. […]
(§2) Osteoblasts, fibroblasts and endothelial cells were seeded onto the substrates at a density of 3500 cells/cm^2 and were incubated in the cell culture medium (specifically, DMEM supplemented with FBS and P/S for osteoblasts, EMEM supplemented with FBS for fibroblasts and MCDB-131 complete medium for endothelial cells) for 4 h. […] The cell density was then determined by counting cells using Image Pro Analyzer. […]
(§3) Data are presented as the mean value±the standard error of the mean and were analyzed with a student's t-test to make pair-wise comparisons. […]

[2] = tested on: human fetal osteoblast cell line (ATCC, CRL-11372); experiment: Osteoblast adhesion on RNT-coated titanium; details: coated on Ti, 4 h, FIG. 5
Description: as §1, §2, §3

[3] = tested on: rat skin fibroblast cell line (FR, ATCC, CRL-1213); experiment: Fibroblast adhesion on RNT-coated titanium; details: 4 h, FIG. 7
Description: as §1, §2, §3

With “lysine-arginine-serine-argine (KRSR) [KRSR peptide]” the “endothelial cell adhesion / density” value [1] was “did not enhance endothelial cell adhesion”, the “osteoblast adhesion (in words)” value [2] was “promoted more osteoblast cell adhesion relative to uncoated Ti” and the “fibroblast adhesion compared to uncoated Ti” value [3] was “did not enhance fibroblast adhesion”.
